Laboratory results as given in ChEMBL document CHEMBL5260811, “Drug development against tuberculosis: Impact of alkaloids” (Eur J Med Chem, 2017).

System: Mycobacterium tuberculosis
Experiment: Antimycobacterial activity against Mycobacterium tuberculosis
Assay type: functional
Conditions: not given

| SMILES | IC [µg/mL] |
| --- | --- |
| CO/N=c1\[n-]cnc2c1[n+](C/C=C(\C)CC/C=C(\C)CCC1=C(C)CCCC1(C)C)cn2C | 6.25 |
| C=C[C@H]1C=C[C@H]2[C@@H]3C[C@H](C)CC[C@H]3[C@@H]3Oc4ccc(cc4)C[C@@]4(O)C[C@H](C(=O)N4)C(=O)[C@@H]1[C@H]23 | 0.78 |
| C=C[C@H]1C=C[C@H]2[C@@H]3C[C@H](C)CC[C@H]3[C@@H]3Oc4ccc(cc4)C[C@]4(O)NC(=O)[C@]5(O[C@H]54)C(=O)[C@@H]1[C@H]23 | 0.78 |
| C/C=C/[C@H]1C=C[C@H]2[C@@H]3C[C@H](C)CC[C@H]3[C@@H]3Oc4ccc(cc4)C[C@@H]4C(=O)NC(=O)[C@H]4C(=O)[C@@H]1[C@H]23 | 3.125 |
| CC1=C(CC/C(C)=C/CC/C(C)=C/C[n+]2cn(C)c3nc[n-]/c(=N\OC(C)(C)C)c32)C(C)(C)CCC1 | 6.25 |
| C=C[C@H]1C=C[C@H]2[C@@H]3C[C@H](C)CC[C@H]3[C@@H]3Oc4ccc(cc4)C[C@@H]4C(=O)NC(=O)[C@H]4C(=O)[C@@H]1[C@H]23 | 0.78 |

Same assay, conditions: Mycobacterium tuberculosis

| SMILES | MIC |
| --- | --- |
| CCCC/C=C\CCCCc1cc(=O)c2ccccc2n1C | 2 µg/mL |
| c1cc2c[n+](c1)CCCCCCCCCCCCc1ccc[n+](c1)CCCCCCCCCCC2 | 9.3 µg/mL |
| [C-]#[N+][C@]12[C@H]3O[C@H]3C(C)(C)c3[nH]c4cccc5c4c3[C@]1(O)[C@H](C[C@@H](Cl)[C@]2(C)C=C)C5(C)C [AMBIGUINE E ISONITRILE] | 21 µM |
| COc1ccc(CCC2CCc3ccccc3N2C)cc1OC (stereo not given) | 6.25 µg/mL |
| [C-]#[N+][C@]12C[C@@H](O)C(C)(C)c3[nH]c4cccc5c4c3[C@]1(O)[C@H](C[C@@H](Cl)[C@]2(C)C=C)C5(C)C [AMBIGUINE M ISONITRILE] | 3.3 µg/mL |
| [C-]#[N+][C@]12[C@H]3O[C@H]3C(C)(C)c3[nH]c4cccc5c4c3[C@]1(O)[C@H](CC[C@]2(C)C=C)C5(C)C | 13.1 µM |
| c1cc2c[n+](c1)CCCCCCCCCCCCCCc1ccc[n+](c1)CCCCCCCCCCC2 | 4.6 µg/mL |
| [C-]#[N+][C@@H]1[C@@H]2c3c(C(C)(C)C=C)[nH]c4cccc(c34)C(C)(C)[C@H]2C[C@@H](Cl)[C@]1(C)C=C [AMBIGUINE A ISONITRILE] | 46.7 µM |
| CC(=O)NCCC1C2=C3C(=NC=CC3c3ccccc3N2)c2ncsc21 (stereo not given) | 34 µM |
| COc1ccc2c(c[n+](C)c3c4cc5c(cc4ccc23)OCO5)c1OC.[Cl-] [CHELERYTHRINE CHLORIDE] | 14.3 µg/mL |
| CN(C)c1ccc(C2C(Cl)C(=O)N2NC(=O)c2cc(O)c(O)c(O)c2)cc1 (stereo not given) | 0.62 µg/mL |
| COC(=O)N1CCc2c(OC)c(OC)c(O)c3c2[C@@H]1Cc1cc2c(cc1-3)OCO2 | 128 µg/mL |
| [C-]#[N+][C@@H]1[C@]2(O)c3c(C(C)(C)C=C)[nH]c4cccc(c34)C(C)(C)[C@H]2CC[C@]1(C)C=C [AMBIGUINE C ISONITRILE] | 7 µM |
| CC(=O)NCCC1C2=C3C(=NC=CC3c3ccccc3N2)C2=C1SCC(=O)N2 (stereo not given) | 32 µM |
| Nc1c(Br)cc(Br)cc1CN[C@H]1CC[C@H](O)CC1 [AMBROXOL] | 6 µg/mL |
| [C-]#[N+][C@@H]1[C@H]2c3c[nH]c4cccc(c34)C(C)(C)[C@@H]2CC[C@]1(C)C=C [HAPALINDOLE H] | 58.8 µM |
| CN(Cc1cc(Br)cc(Br)c1N)C1CCCCC1 [BROMHEXINE] | 6 µg/mL |
| O=C(NN1C(=O)C(Cl)C1c1ccccc1Cl)c1cc(O)c(O)c(O)c1 (stereo not given) | 0.76 µg/mL |
| c1cc2c[n+](c1)CCCCCCCCCCCCCCc1ccc[n+](c1)CCCCCCCCCC2 | 5.3 µg/mL |
| C=CC(C)(C)c1[nH]c2c(CC=C(C)C)cc(CC=C(C)C)cc2c1C[C@@H]1NC(=O)[C@H](C)NC1=O [ECHINULIN] | 170 µg/mL |
| [C-]#[N+][C@]12C[C@@H](O)C(C)(C)c3[nH]c4cccc5c4c3[C@]1(O)[C@H](CC[C@]2(C)C=C)C5(C)C [AMBIGUINE N ISONITRILE] | 10.9 µg/mL |

| SMILES | MIC |
| --- | --- |
| CC(=O)NCCC1=C2Nc3ccccc3C3C=CN=C(C4=C1SCO4)C23 (stereo not given) | 17 µM |
| O=[N+]([O-])c1cn2c(n1)OC[C@@H](OCc1ccc(OC(F)(F)F)cc1)C2 [PRETOMANID] | 0.015 µg/mL |
| O=C(NN1C(=O)C(Cl)C1c1ccc(Cl)cc1)c1cc(O)c(O)c(O)c1 (stereo not given) | 0.83 µg/mL |
| CCCCC/C=C\C/C=C\CCc1cc(=O)c2ccccc2n1C | 2 µg/mL |
| COc1c(O)c2c3c(c1OC)CCN[C@H]3Cc1cc3c(cc1-2)OCO3 | 64 µg/mL |
| [C-]#[N+][C@]12C=CC(C)(C)c3[nH]c4cccc5c4c3[C@]1(O)[C@H](CC[C@]2(C)C=C)C5(C)C [AMBIGUINE L ISONITRILE] | 4.5 µg/mL |
| c1cc2c[n+](c1)CCCCCCCCCCCCc1ccc[n+](c1)CCCCCCCCCC2 | 4.6 µg/mL |
| CCCC/C=C\CCCCCCc1cc(=O)c2ccccc2n1C | 2 µg/mL |
| CCCCCCCCCCCc1cc(=O)c2ccccc2n1C | 2 µg/mL |
| O=C(NN1C(=O)C(Cl)C1c1cccc(Cl)c1)c1cc(O)c(O)c(O)c1 (stereo not given) | 0.57 µg/mL |
| COc1ccc2c(c1)[nH]c1cc(OC)c(C(=O)O)cc12 [CLAUSINE K] | 100 µg/mL |
| c1cc2c[n+](c1)CCCCCCCCCCCCCc1ccc[n+](c1)CCCCCCCCCC2 | 6.6 µg/mL |
| C[n+]1cc2c3c(ccc2c2ccc4cc5c(cc4c21)OCO5)OCO3.[Cl-] [SANGUINARIUM CHLORIDE] | 24.5 µg/mL |
| [C-]#[N+][C@@H]1[C@@H]2c3c[nH]c4cccc(c34)C(C)(C)[C@H]2C[C@@H](Cl)[C@]1(C)C=C [HAPALINDOLE G] | 6.8 µM |
| O=[N+]([O-])c1cn2c(n1)OC[C@@H](OCc1ccc(-c3ccc(OC(F)(F)F)cc3)nc1)C2 [TBA-354] | 0.34 µg/mL |
| COc1c(O)c2c3c(c1OC)CCN[C@H]3Cc1cc3c(cc1-2)OCO3.Cl | 4 µg/mL |
| COC(=O)c1ccc2[nH]c3ccccc3c2c1 | 50 µg/mL |
| CCCCC/C=C\C/C=C\CCCCc1cc(=O)c2ccccc2n1C | 2 µg/mL |
| CO[C@H]1/C=C/O[C@@]2(C)Oc3c(C)c(O)c4c(O)c(c(/C=N/N5CCN(C6CCCC6)CC5)c(O)c4c3C2=O)NC(=O)/C(C)=C\C=C\[C@H](C)[C@H](O)[C@@H](C)[C@@H](O)[C@@H](C)[C@H](OC(C)=O)[C@@H]1C [RIFAPENTINE] | 0.02 µg/mL |
| Cn1c(=O)ccc2ccccc21 | 6.25 µg/mL |

System: Mycolicibacterium smegmatis
Experiment: Antimycobacterial activity against Mycobacterium smegmatis
Assay type: functional
Conditions: not given

| SMILES | IC [µg/mL] |
| --- | --- |
| C1=C\CCCC[C@@H]2CN3CCCC/C=C\CCCC[C@H]4C[C@H](CN(CCCCCC/1)C4)[C@H]2CC3 | 1 |
| OC1CCCC/C=C\CCCC[C@@H]2CN3CCCC/C=C\CCCC[C@H]4C[C@H](CN(C1)C4)[C@H]2CC3 (stereo not given in full) | 12.5 |

System: Mycobacterium tuberculosis
Experiment: Antimycobacterial activity against Mycobacterium tuberculosis H37Rv
Assay type: functional
Conditions: not given

| SMILES | MIC |
| --- | --- |
| Nc1c(Br)cc(O)c(CC(=O)O)c1Br | 15.9 µg/mL |
| CC1CCC(=NNC(=O)c2[nH]c3ccc(F)cc3c2-c2ccccc2)CC1 (stereo not given) | 6.25 µg/mL |
| COc1c(O)ccc2c1cnc1c3cc4c(cc3ccc21)OCO4 [DECARINE] | 3.1 µg/mL |
| O=C1C(c2ccc(O)cc2)=C2C(=C(c3ccc(O)cc3)C(=O)N2CCc2ccc(O)cc2)c2ccc(O)cc21 | 4 µg/mL |
| CCSC1=CC(=O)c2nc3ccccc3c3ccnc1c23 | 0.34 µM |
| O=C1C(c2ccc(O)cc2)=C(c2ccc(O)cc2)C(=O)N1CCc1ccc(O)cc1 | 16 µg/mL |
| CC(=O)C[C@@H]1C[C@H]2[C@H]([C@@H]3c4[nH]c5ccccc5c4CCN13)[C@H](O)C13CC/C=C\CCCCN1C[C@@]21CC/C=C\CCCCN[C@@H]31 | 5.2 µg/mL |
| CCCC1CCC2(CC1)SCC(=O)N2NC(=O)c1[nH]c2ccc(F)cc2c1-c1ccccc1 (stereo not given) | 6.25 µg/mL |
| C=C1CCCC(C)(C)[C@H]1CC/C(C)=C/CC/C(C)=C/C[n+]1cn(C)c2nc[nH]/c(=N\OC)c21.[Cl-] | 3 µg/mL |
| Oc1ccc2[nH]c3c(C4=C[C@@]5(O)CC/C=C\CCCCN6CC[C@@H]4C4(C[C@@H]7/C=C\CCCCN7C45)C6)nccc3c2c1 (stereo not given in full) | 1.9 µg/mL |
| C=C[C@@]1(C)C(Cl)C[C@@H]2C(C)(C)c3cccc4[nH]c5c(c34)[C@@]2(O)[C@]1(C#N)[C@@]1(CO1)C5(C)C (stereo not given in full) | 2 µM |
| CC(=O)C[C@H]1C[C@H]2[C@H]([C@@H]3c4[nH]c5ccccc5c4CCN13)[C@H](O)C13CC/C=C\CCCCN1C[C@@]21CC/C=C\CCCCN[C@@H]31 | 1.5 µg/mL |
| O=C1c2c(O)ccnc2-c2nccc3c2c1nc1ccccc13 | > 42 µM |
| C=C[C@]1(C)C/C=C(/C#N)C(C)(C)c2[nH]c3cccc4c3c2C(=C)[C@H](CC1Cl)C4(C)C (stereo not given in full) | 53.7 µM |
| c1cc2c[n+](c1)CCCCCCCCCCCCCc1ccc[n+](c1)CCCCCCCCCCCCC2 | 4 µg/mL |
| C=C1c2[nH]cc(Br)c2[C@H]2NC(N)=N[C@]23CCCN13 | 64 µg/mL |

| SMILES | MIC |
| --- | --- |
| C=C1CC[C@@]2(C#N)[C@H]3[C@H](CC[C@@H]2C)[C@@H](C)C[C@@H](CC(C)(C)C)[C@H]13 | 2 µg/mL |
| CCCCCCCCC/C=C/C=C/C(=O)NCC(C)C | 6.2 µg/mL |
| C=C1CC[C@@]2(C#N)[C@H]3[C@H](CC[C@@H]2C)[C@@H](C)C[C@@H](CC(C)(C)NC(=O)CN2CCC2=O)[C@H]13 | 15.3 µg/mL |
| CN1C=NC2=C(N)NCNC21 (stereo not given) | 6.25 µg/mL |
| COC1=CC(=O)c2nc3ccccc3c3ccnc1c23 | 1.5 µM |
| CO/N=c1\[nH]cnc2c1[n+](C/C=C(\C)CC/C=C(\C)CCC1CCCCC1)cn2C.[Cl-] | 1.56 µg/mL |
| CC[C@@H](CO)NCCN[C@@H](CC)CO [ETHAMBUTOL] | 5.61 µg/mL |
| CC1=CCC[C@H](C)[C@@]1(C)CC/C(C)=C/CC/C(C)=C/Cn1c[n+](C)c2ncnc(N)c21 | 3.13 µg/mL |
| O=C1C(c2ccc(O)cc2)=C(c2ccc(O)cc2)/C(=C/c2ccc(O)cc2)N1CCc1ccc(O)cc1 | 32 µg/mL |
| COc1cc2c(cc1OC)C(CC(C)=O)N(C)c1c-2ccc2cc3c(cc12)OCO3 (stereo not given) | 6.2 µg/mL |
| Nc1nc(/C=C/CNC(=O)c2cc(Br)c[nH]2)c[nH]1 | 6.1 µg/mL |
| C=C[C@@]1(C)[C@H](Cl)C[C@@H]2C(C)(C)c3cccc4[nH]c5c(c34)[C@@]2(O)[C@]1(C#N)C=CC5(C)C | 2.8 µg/mL |
| Cc1ccc(SC2=CC(=O)c3nc4ccccc4c(C)c3C2=O)cc1 | 2.2 µM |
| Cc1ccc(SC2=CC(=O)c3nc4ccccc4c4ccnc2c34)cc1 | 9 µM |
| CO/N=c1\[nH]cnc2c1[n+](C/C=C(\C)CC/C=C(\C)CC/C=C(\C)CCC=C(C)C)cn2C.[Cl-] | 3.13 µg/mL |
